Data as given in ChEMBL document CHEMBL1126231, “Synthesis and phototoxicity of a series of haematoporphyrin analogues” (1992).

How the values were obtained:
[1] = In vivo localization capacities at 6 hr post injection in a mouse C6 intracerebral glioma model and the tumor; normal brain ratio was calculated; type: functional
[2] = In vivo localization capacities at 24 hr post injection in a mouse C6 intracerebral glioma model and the tumor; normal brain ratio was calculated; type: functional

CCOC(C)C1=C(C)c2cc3[nH]c(cc4[nH]c(cc5nc(cc1n2)C(C)=C5C(C)OCC)c(C)c4CCC(=O)O)c(CCC(=O)O)c3C (stereo not given)
Ratio [1]: 17.5
Ratio [2]: 8.7

CCOCCOC(C)C1=C(C)c2cc3[nH]c(cc4[nH]c(cc5nc(cc1n2)C(C)=C5C(C)OCCOCC)c(C)c4CCC(=O)NCCN(C)C)c(CCC(=O)NCCN(C)C)c3C (stereo not given)
Ratio [1]: 15.2
Ratio [2]: 8

CC1=C(C(C)SCC(=O)O)c2cc3nc(cc4[nH]c(cc5[nH]c(cc1n2)c(C)c5CCC(=O)O)c(CCC(=O)O)c4C)C(C(C)SCC(=O)O)=C3C (stereo not given)
Ratio [1]: 23
Ratio [2]: 28.2

CCOC(C)C1=C(C)c2cc3[nH]c(cc4[nH]c(cc5nc(cc1n2)C(C)=C5C(C)OCC)c(C)c4CCC(=O)NCCN(C)C)c(CCC(=O)NCCN(C)C)c3C (stereo not given)
Ratio [1]: 2.4
Ratio [2]: 6.4

CCOCCOC(C)C1=C(C)c2cc3[nH]c(cc4[nH]c(cc5nc(cc1n2)C(C)=C5C(C)OCCOCC)c(C)c4CCC(=O)O)c(CCC(=O)O)c3C (stereo not given)
Ratio [1]: 37.7
Ratio [2]: 25.1
